Assay results from patent publication US12552770B2, “Compounds for treating respiratory disease” (TMEM16A Limited, priority 2020, dated 2026).

Biological target: T1, human TMEM16A (TMEM16Aabc variant) (Homo sapiens, UniProt Q5XXA6, DEL476-501)
T1 sequence (Q5XXA6 with tags, fused parts or gaps isoform Q5XXA6-5 DEL539-564): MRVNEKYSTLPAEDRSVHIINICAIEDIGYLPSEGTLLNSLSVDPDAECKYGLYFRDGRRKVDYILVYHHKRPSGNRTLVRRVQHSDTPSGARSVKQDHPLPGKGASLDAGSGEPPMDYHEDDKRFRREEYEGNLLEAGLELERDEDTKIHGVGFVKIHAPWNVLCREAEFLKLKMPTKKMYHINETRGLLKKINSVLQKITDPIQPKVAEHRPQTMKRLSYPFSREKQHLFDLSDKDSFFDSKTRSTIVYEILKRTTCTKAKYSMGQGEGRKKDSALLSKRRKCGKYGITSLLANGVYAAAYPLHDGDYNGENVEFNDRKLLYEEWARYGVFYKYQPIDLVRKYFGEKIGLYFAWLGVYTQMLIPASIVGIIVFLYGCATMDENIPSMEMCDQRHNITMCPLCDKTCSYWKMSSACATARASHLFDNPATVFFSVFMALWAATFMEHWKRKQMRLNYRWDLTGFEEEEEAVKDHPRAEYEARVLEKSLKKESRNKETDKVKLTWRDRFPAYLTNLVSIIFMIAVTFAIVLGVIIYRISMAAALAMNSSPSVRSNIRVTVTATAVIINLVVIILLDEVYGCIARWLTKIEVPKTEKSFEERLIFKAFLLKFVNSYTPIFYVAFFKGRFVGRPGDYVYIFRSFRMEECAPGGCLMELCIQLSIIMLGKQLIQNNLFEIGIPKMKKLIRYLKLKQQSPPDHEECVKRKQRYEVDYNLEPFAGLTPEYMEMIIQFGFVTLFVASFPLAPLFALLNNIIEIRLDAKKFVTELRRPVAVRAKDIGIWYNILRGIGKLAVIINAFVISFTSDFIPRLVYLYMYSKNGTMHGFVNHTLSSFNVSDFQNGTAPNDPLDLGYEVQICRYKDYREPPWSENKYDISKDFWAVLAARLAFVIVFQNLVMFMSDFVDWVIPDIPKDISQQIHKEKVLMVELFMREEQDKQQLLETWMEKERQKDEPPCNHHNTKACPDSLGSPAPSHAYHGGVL
Assay: Automated whole-cell patch clamp (Qpatch) TMEM16A potentiator assay in recombinant cells
Type: cell-based
Conditions: FRT cells stably expressing human TMEM16A, intracellular calcium at EC20; for % Potentiation @ 3.33 μM Avg: 3.33 μM solution of test compound, percentage increase of baseline TMEM16A current, peak current at +70 mV; for EC50: calculated from cumulative concentration response curve, whole-cell patch clamp
Experimental: Automated Whole-Cell Patch Clamp Assay to Detect TMEM16A Activity in Recombinant Cells
Cell Culture and Preparation
Fisher rat thyroid (FRT) cells stably expressing human TMEM16A (TMEM16Aabc variant; Dr Luis Galietta, Insituto Giannina, Italy) were cultured in T-75 flasks in Hams F-12 media with Coon's modification (Sigma) supplemented with 10% (v/v) foetal bovine serum, penicillin-streptomycin (10,000 U/mL/10000 μg/mL), G-418 (750 μg/mL), L-glutamine (2 mM) and sodium bicarbonate solution (7.5% v/v). At ˜90% confluence cells were harvested for experiments by detachment with a 2:1 (v/v) mixture of Detachin (BMS Biotechnology) and 0.25% (w/v) trypsin-EDTA. Cells were diluted to a density of 3.5-4.5×10^6 cells/mL with media consisting of CHO-S-SFM II (Sigma), 25 mM HEPES (Sigma) and Soy bean trypsin inhibitor (Sigma).
Whole-Cell Patch Clamp Recording
FRT-TMEM16A cells were whole-cell patch clamped using an automated planar patch clamp system (Qpatch, Sophion). Briefly, once high resistance (GOhm) seals were established between the cells and the planar recording array the patch was ruptured using suction pulses to establish the whole-cell recording configuration of the patch clamp technique. The assay employed the following solutions (all reagents Sigma):
Intracellular solution (mM): N-methyl-D-glucamine 130, CaCl2 18.2, MgCl2 1, HEPES 10, EGTA 10, BAPTA 20, Mg-ATP 2, pH 7.25, 325 mOsm with sucrose.
Extracellular solution (mM): N-methyl-D-glucamine 130, CaCl2 2, MgCl2 1, HEPES 10, pH 7.3, 320 mOsm with sucrose.
The intracellular solution buffers intracellular calcium at levels required to give ˜20% activation of the maximal TMEM16A mediated current (EC20 for calcium ions). Cells were voltage clamped at a holding potential of −70 mV and a combined voltage step (to +70 mV)/ramp (−90 my to +90 mV) was applied at 0.05 Hz. After a period of current stabilisation test compounds, solubilised in 100% (v/v) DMSO and subsequently diluted into extracellular solution, were applied to generate a cumulative concentration response curve. Each concentration of test compound was incubated for 5 minutes before addition of the next concentration. After the final concentration was tested a supramaximal concentration of either a known active positive modulator or the TMEM16A inhibitor, CaCCinhA01 (Del La Fuente et al, 2008) was added to define the upper and lower limits of the assay.
Compound activity was quantified by measuring the increase in current upon compound addition and expressing this as a percentage increase of baseline TMEM16A current level. Percentage increases in current were determined for each concentration and the data plotted as a function of concentration using either the Qpatch software or Graphpad Prism v6.05 providing the concentration which gave 50% of its maximal effect (EC50) and maximum efficacy (percentage of baseline increase).
In FIG. 1, IBL equals baseline current, I[#1] equals the peak current during test compound concentration 1 incubation period and so on.
Peak TMEM16A current at +70 mV was plotted as a function of time over the assay period. Baseline current (IBL) was measured after a period of stabilisation. The increase in current for each compound addition was determined by taking the peak current during the incubation period and subtracting the current from the previous recording period and then expressing this as a percentage of the baseline current. For test compound concentration 1 in FIG. 1 this is:
For each additional concentration tested the increase in current was determined by subtracting the current from the previous incubation period and normalising the baseline value—for test concentration 2 in FIG. 1 this is:
The values for each test concentration were plotted as a cumulative function of concentration e.g. for test concentration two this would be the sum of the peak changes measured during concentration one plus concentration two.

SMILES	% Potentiation @ 3.33 μM Avg	EC50
O=C(CC12CC3CC(CC(C3)C1)C2)Nc1cc2nc(Cc3ccccc3)[nH]c2cn1 [Example 14, 2-(1-Adamantyl)-N-(2-benzyl-3H-imidazo[4,5-c]pyridin-6-yl)acetamide]	59.4%	–
O=C(NCC1CCCCCC1)c1ccn2cc(Cc3ccccc3)nc2c1 [Example 15, 2-Benzyl-N-(cycloheptylmethyl)imidazo[1,2-a]pyridine-7-carboxamide]	58.6%	1060 nM
O=C(CC12CC3CC(CC(C3)C1)C2)Nc1ccc2cn(Cc3ccccc3)nc2c1 [Example 16, 2-(1-Adamantyl)-N-(2-benzylindazol-6-yl)acetamide]	137.3%	502 nM
Cc1c2ccc(NC(=O)CC34CC5CC(CC(C5)C3)C4)cc2nn1Cc1ccccc1 [Example 17, 2-(1-Adamantyl)-N-(2-benzyl-3-methyl-indazol-6-yl)acetamide]	118.3%	918 nM
CC(C)(C)c1nc2cc(NC(=O)Cc3cc(Cl)ccc3O)ccc2[nH]1 [Example 18, N-(2-tert-Butyl-1H-benzimidazol-5-yl)-2-(5-chloro-2-hydroxy-phenyl)acetamide]	95.9%	156 nM
CC(C)(CNC(=O)OC(C)(C)C)CNC(=O)c1ccc2[nH]c(Cc3ccccc3)nc2c1 [Example 19, tert-Butyl N-[3-[(2-benzyl-1H-benzimidazole-5-carbonyl)amino]-2,2-dimethyl-propyl]carbamate]	181.6%	936 nM
CC(C)(C)c1nc2ccc(C(=O)NCC3CCCCCC3)cc2[nH]1 [Example 20, 2-tert-Butyl-N-(cycloheptylmethyl)-3H-benzimidazole-5-carboxamide]	85.9%	776 nM
CC(C)(C)c1cc(F)c(Cc2nc3cc(C(=O)NC4(C(F)(F)F)CC4)ccc3[nH]2)cc1O [Example 21, 2-[(4-tert-Butyl-2-fluoro-5-hydroxy-phenyl)methyl]-N-[1-(trifluoromethyl)cyclopropyl]-1H-benzimidazole-5-carboxamide]	262%	99 nM
CC(C)(C)c1cc(F)c(Cc2nc3cc(C(=O)NCC4(C(F)(F)F)CC4)ccc3[nH]2)cc1O [Example 21.1, 2-[(4-tert-Butyl-2-fluoro-5-hydroxy-phenyl)methyl]-N-[[1-(trifluoromethyl)cyclopropyl]methyl]-1H-benzimidazole-5-carboxamide]	275%	227 nM
CC(C)(C)c1cc(F)c(Cc2nc3cc(C(=O)NCCC(F)(F)F)ccc3[nH]2)cc1O [Example 21.2, 2-[(4-tert-Butyl-2-fluoro-5-hydroxy-phenyl)methyl]-N-(3,3,3-trifluoropropyl)-1H-benzimidazole-5-carboxamide]	272%	150 nM
CC(C)(O)c1cc(F)c(CC(=O)Nc2ccc3[nH]c(C4(C(F)(F)F)CC4)nc3c2)cc1O [Example 22, 2-[2-Fluoro-5-hydroxy-4-(1-hydroxy-1-methyl-ethyl)phenyl]-N-[2-[1-(trifluoromethyl)cyclopropyl]-1H-benzimidazol-5-yl]acetamide]	149%	168 nM
CC(C)(C)c1cc(F)c(CC(=O)Nc2ccc3[nH]c(C4(C(F)(F)F)CC4)nc3c2)cc1O [Example 23, 2-(4-tert-Butyl-2-fluoro-5-hydroxy-phenyl)-N-[2-[1-(trifluoromethyl)cyclopropyl]-1H-benzimidazol-5-yl]acetamide]	153%	52 nM
O=C(NCCC(F)(F)F)c1ccc2[nH]c(Cc3ccccc3)nc2c1 [Example 24, 2-Benzyl-N-(3,3,3-trifluoropropyl)-1H-benzimidazole-5-carboxamide]	69%	1100 nM
O=C(NCC1CCCC1)c1ccc2[nH]c(Cc3ccccc3)nc2c1 [Example 24.1, 2-Benzyl-N-(cyclopentylmethyl)-1H-benzimidazole-5-carboxamide]	106%	176 nM
O=C(NCC1CCCCCC1)c1ccc2[nH]c(Cc3ccccc3)nc2c1 [Example 24.2, 2-Benzyl-N-(cycloheptylmethyl)-1H-benzimidazole-5-carboxamide]	137%	120 nM
O=C(NCC1CCCCCC1)c1ccc2[nH]c(Cc3c(O)cccc3F)nc2c1 [Example 25, N-(Cycloheptylmethyl)-2-[(2-fluoro-6-hydroxy-phenyl)methyl]-1H-benzimidazole-5-carboxamide]	57%	36 nM
O=C(NCC1CCCCCC1)c1ccc2[nH]c(Cc3cc(F)ccc3O)nc2c1 [Example 25.1, N-(Cycloheptylmethyl)-2-[(5-fluoro-2-hydroxy-phenyl)methyl]-1H-benzimidazole-5-carboxamide]	142%	76 nM
O=C(NCC1CCCCCC1)c1ccc2[nH]c(Cc3cccc(F)c3O)nc2c1 [Example 25.2, N-(Cycloheptylmethyl)-2-[(3-fluoro-2-hydroxy-phenyl)methyl]-1H-benzimidazole-5-carboxamide]	83%	200 nM
O=C(NCC1CCCCCC1)c1ccc2[nH]c(Cc3ccccc3O)nc2c1 [Example 25.3, N-(Cycloheptylmethyl)-2-[(2-hydroxyphenyl)methyl]-1H-benzimidazole-5-carboxamide]	104%	76 nM
